This is an account of results in article PMC4526202, “Identification of a botanical inhibitor of intestinal diacylglyceride acyltransferase 1 activity via in vitro screening and a parallel, randomized, blinded, placebo-controlled clinical trial” (Nutrition & Metabolism, 2015).

Broadly, the IC50 is the concentration that inhibits the measured activity by half.

Experiment [1] has as its target T1, DGAT1 (human small intestinal microsomal preparation) (Homo sapiens, UniProt O75907).
T1 construct: using a human small intestinal microsomal preparation (BD Biosciences) as the enzyme source; tissue BD Biosciences; host or cells: human small intestine microsomes
T1 sequence (O75907 1-488): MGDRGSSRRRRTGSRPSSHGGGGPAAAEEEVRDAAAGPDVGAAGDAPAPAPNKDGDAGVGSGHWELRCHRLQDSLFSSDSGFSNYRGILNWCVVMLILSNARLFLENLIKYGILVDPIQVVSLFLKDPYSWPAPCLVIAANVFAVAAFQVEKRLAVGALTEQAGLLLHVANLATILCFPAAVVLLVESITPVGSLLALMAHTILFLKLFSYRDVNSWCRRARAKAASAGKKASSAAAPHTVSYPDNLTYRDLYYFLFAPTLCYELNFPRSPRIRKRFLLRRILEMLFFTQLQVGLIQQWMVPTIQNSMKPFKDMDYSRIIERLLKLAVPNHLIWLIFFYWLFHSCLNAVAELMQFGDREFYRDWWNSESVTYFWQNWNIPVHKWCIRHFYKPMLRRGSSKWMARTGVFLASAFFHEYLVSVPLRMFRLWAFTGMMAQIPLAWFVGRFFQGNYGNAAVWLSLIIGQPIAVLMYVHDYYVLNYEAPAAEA
The experiment is described as follows: Cell-free DGAT1 enzyme assay (LC-MS readout). Format: biochemical. The protocol: A cell-free DGAT1 assay was established using a human small intestinal microsomal preparation (BD Biosciences) as the enzyme source, and dioleoyl glycerol and palmitoleoyl Coenzyme A (CoA) as substrates (Sigma). Dioleoyl glycerol was dissolved in DMSO and diluted to 600 μM with 175 mM Tris–HCl and 100 mM MgCl2 (Tris/MgCl2) buffer. Palmitoleoyl CoA was dissolved in1.5 % acetone water solution (Fisher Scientific) to 150 μM. Microsomes were diluted to 25 μg/mL with 3.5 mg/mL BSA in Tris MgCl2 buffer. To a 1.5 mL tube, 67 μL of each palmitoleoyl CoA s and dioleoyl glycerol solutions (1:1 ratio) were added and the reaction was initiated by the addition of 67 μL of microsomes. The reaction was incubated in a 37 °C water bath for 60 min. The reaction was stopped by the addition of 1 mL of extraction solvent (isopropanol:dichloromethane (1:1 v/v) with 2.4 % formic acid) containing 1 μg/mL internal standard (glyceryl triolein, Sigma) to each tube and mixed by vortexing. The tubes were centrifuged at 10,000Xg for 3 min. 500 μL of the bottom phase was filtered through a Millex-HV syringe driven filter unit with tube outlet (PVDF @ 0.45 μm, Millipore) and transferred to LC-MS vials (12x32 mm glass screw neck, preslit cap & PTFE/silicone septa, Waters). Phytochemicals (Sigma), botanical extracts and positive control were diluted in DMSO and added to the reaction with the substrates at the desired concentration. The DGAT1 inhibitor A922500 (Tocris) was used as positive control at a concentration of 40 nM.
Refer to Table 3 for the mobile phase program. Solvent A: 0.1 % ammonium acetate in water; Solvent B: 0.1 % acetic acid in acetonitrile; Solvent C: 0.1 % acetic acid in isopropanol; all solvents were from Fisher Scientific. Injection volume: 10 μL. Column: Acquity BEH C18 1.7 μm, 2.1 x 50 mm. Effluent from the column was directed to the electrospray source of the mass spectrometer. Electrospray conditions: positive ion mode; cone voltage: […]; desolvation temperature: 450 °C; source temperature: 140 °C; nebulizer gas flow: 800 L/h; cone gas flow: 10 L/h. The mass spectrometer was operated at 20,000 resolving power and scans from m/z 100–1200 were acquired with a cycle time of 0.25 s. Selected ion chromatograms were plotted for the following: m/z 875 representing the ammoniated molecular ion for triacylglycerol reaction product containing 2 oleic acid and 1 palmitoleic acid moieties (C18:1/C18:1/C16:1); m/z 903 for the ammoniated molecular ion of glyceryl triolein (C18:1/C18:1/C18:1) internal standard. Quantification was determined based on area counts of the product relative to the internal standard.
Dose response curves for the cell-free DGAT1 assay were fitted with a log (inhibitor) vs. response, variable slope (four parameters) equation. Cellular DGAT1 assay data is shown as mean ± standard error of mean (SEM) and was analyzed by two-way ANOVA with Bonferroni's multiple comparison test. The primary outcome variable, serum TG level, is presented as mean ± SEM of baseline (fasting) subtracted change in serum TG after the HFM challenge. Area under the curve (AUC) was determined using the trapezoidal method. Comparisons between groups were made using unpaired t-test with Welch’s correction. A significant effect of investigational product was defined as P < 0.05. All statistical analyses were done using Prism-Graph Pad Software (San Diego, CA).

Experiment [2] concerns DGAT1 activity / TG synthesis in HEK293H cells. The experiment in a line: Cellular DGAT1 assay: [14C]-glycerol incorporation into TG. Format: cell-based, human. From the text:
Three different cell lines, human colorectal (HT-29), human embryonic kidney (HEK293H) and human hepatic (HEPG2) were screened for the presence of both DGAT1 and DGAT2 protein. The HEK293H cell line contained DGAT1 and little to no DGAT2 protein (Additional file 1: Figure S1), therefore, a cellular DGAT1 assay was established in HEK293H cells to measure the synthesis of TG. HEK293 cell line has previously been reported to contain only DGAT1 and not DGAT2, and has been validated as an in vitro model to determine TG synthesis via DGAT1 [34].
The DGAT1 activity was determined by measuring the incorporation of [^14C]-glycerol (1 μCi/mL, Perkin-Elmer) into [^14C]-TG during a 5 h incubation with 0.3 mM oleic acid/BSA in HEK293H cells. […] Silica gel spots corresponding to lipid species were scraped into scintillation vials and the incorporated radioactivity was quantified using a MicroBeta TriLux (Perkin-Elmer). […]
Dose response curves for the cell-free DGAT1 assay were fitted with a log (inhibitor) vs. response, variable slope (four parameters) equation. Cellular DGAT1 assay data is shown as mean ± standard error of mean (SEM) and was analyzed by two-way ANOVA with Bonferroni's multiple comparison test. […] Area under the curve (AUC) was determined using the trapezoidal method. […]

The mark [3] stands for this setting: single phytochemicals, mean of duplicates.

In experiment [1] (setting [3]), `Oc1cc(O)c2cc(O)c(-c3ccc(O)c(O)c3)[o+]c2c1` [Cyanidin Chloride] registered a concentration for half-maximal inhibition (IC50) of 3060 nM. Molecule `O=c1oc2c(O)c(O)cc3c(=O)oc4c(O)c(O)cc1c4c23` [Ellagic Acid] had an IC50 in experiment [1] (setting [3]) of 3450 nM. Turning to `O=C(Nc1ccccc1)Nc1ccc(-c2ccc(C(=O)[C@@H]3CCC[C@H]3C(=O)O)cc2)cc1` [A-922500], the 50% inhibitory concentration (IC50) stood at 40 nM in experiment [1] (synthetic inhibitor) and 39.9 nM in experiment [1] (synthetic inhibitor, listed as A922500). The “oleic acid induced DGAT1 enzyme activity as measured by 14C label TG levels” value in experiment [2] is reported as “inhibited”. `O=C(O)c1cc(O)c(O)c(O)c1` [Gallic Acid] yielded an IC50 in experiment [1] (setting [3]) of 2670 nM.

`O=C(O[C@@H]1Cc2c(O)cc(O)cc2O[C@@H]1c1cc(O)c(O)c(O)c1)c1cc(O)c(O)c(O)c1` [EGCG, Epigallocatechin Gallate] registered an IC50 in experiment [1] (setting [3]) of 667 nM. On the same count and under the same terms, the value for Punicalagins was 259 nM.
